Measured values published in patent US20100028465A1, “COMPOSITION FOR AMELIORATING CEREBRAL FUNCTION” (priority 2007, published 2010).
“Also recorded” adds a separate entry of the source.

Legend:
[1] = test system: intracerebral monoamines: norepinephrine (NE), 5-hydroxyindole acetic acid (5-HIAA); assay: Monoamine content in cerebral cortex and hippocampus of memory disorder model rats (HPLC-ECD); type: in vivo, rat; details: 1 mg/kg/day oral, day 14
Experimental: Then, the increase and decrease in the concentrations of those intracerebral substances in rats of each group in Example 2 were measured.
That is, the brains of the memory disorder model rats prepared in Example 2 were extirpated and the contents of the monoamines in the cerebral cortex and hippocampus were measured.
On day 14 after administration, 5 rats each in 5 groups of the ibotenic acid-untreated group, non-administration control group, low dose ASL group, high dose ASL group, and positive control group in Example 2 were decapitated with a decapitation machine and the brains were taken out. The brains were put in an ice-cold physiological saline (Otsuka Pharmaceutical Co., Ltd.). Next, the brains were taken out and the cerebral cortex and hippocampus were then taken from the divided brains and the contents of the monoamines and a metabolite thereof were measured. The measurement method is shown in (a) to (c) below.
0.2 N […] solution was added to a brain sample in a container, and thereafter, an internal standard solution was added thereto, followed by homogenizing with a homogenizer. After being ice-cooled for 60 minutes or more, the resultant was centrifuged with a refrigerated centrifuge (about 4° C., 13,800 rpm, 5 minutes), and the supernatant was used as a measurement sample.
Mobile phase: a mixture containing 0.1 mol/Lacetic acid-citric acid buffer (pH 3.5), methanol, 100 mg/ml sodium 1-octane sulfonate solution, and 5 mg/ml EDTA·2·Na solution at a ratio of 830:170:1.85:1

[2] = test system: memory disorder model rats with defect in the cholinergic neuron (ibotenic acid); assay: Morris water maze test (acquisition and probe trials) in memory disorder model rats; type: in vivo, rat
[3] = test system: PC-12 cell; assay: Neurite extension / differentiation of PC-12 cell (differentiated cell ratio); type: cell-based; details: Example 6, non-addition 9.85
Excerpt: Regarding three fractions purified in Example 4, i.e. the fraction 1 (containing N-acylsphinganine), the fraction 2 (containing the hopanoids), and the fraction 3 (containing sphinganine and the amino lipids), the absence or presence of an action of extending and differentiating the neurite as a neurotrophic factor-like action was confirmed using PC-12 cell as a neural model cell.
Note that, in the same manner as in Example 4, 10 g of the alkali-stable lipid was loaded into a silica gel column equilibrated with chloroform. The column was washed with a solvent prepared by mixing chloroform and acetic acid at a volume ratio of 100:1, and eluted with a solvent having a ratio of chloroform to methanol of 2:1, whereby a fraction containing all of the constituent lipids of the fraction 1, fraction 2, and fraction 3 was prepared. The fraction was used as an alkali-stable lipid fraction not containing a fatty acid. Then, the presence or the absence of the action of extending and differentiating the neurite was confirmed similarly.
PC-12 cell (RCB0009) purchased from RIKEN BIORESOURCE CENTER was used. […]
After that, the resultant was cultured at 37° C. and under 5% CO2 for 48 hours. […] The total number of cells and the number of the differentiated cells in the viewing area were counted. […] Then, the average of 10 photographs in which the numbers were counted was calculated. […]

Which “5-HIAA content in hippocampus” value [1] does the source give for `Cl.Nc1c2c(nc3ccccc13)CCCC2` [positive control, 9-amino-1,2,3,4-tetrahydroacridine hydrochloride] here?
The value was “increasing tendencies”.

What about the “5-HIAA content in cerebral cortex” value ([1]; hydrochloride) of the same molecule?
Its value is “increasing tendencies; also recorded: recovered to the level close to those of the ibotenic acid-untreated group”.

And the “NE content in cerebral cortex” value ([1]; hydrochloride)?
The value was “increasing tendencies; also recorded: recovered to the level close to those of the ibotenic acid-untreated group”.

What about the “NE content in hippocampus” value ([1]; hydrochloride) of the same molecule?
The value was “increasing tendencies; also recorded: recovered to the level close to that of the ibotenic acid-untreated group”.

What about the “escape latency in acquisition trials vs non-administration control group” value ([2]; 1 mg per 1 kg rat weight per day, oral, trials day 10 to 13) of the same molecule?
Its value is “tended to be short”.

And the “escape latency in the seventh trial vs non-administration control group (Steel's test, p<0.05)” value ([2]; 1 mg/kg/day oral)?
Its value is “no significant difference”.

And the “retention time in the fourth quadrant in probe trial” value ([2]; 1 mg/kg/day oral, day 14)?
Its value is “did not tend to be long”.

What about the “number of crossings of platform location in probe trial vs non-administration control group” value ([2]; 1 mg/kg/day oral, day 14, p<0.05 Steel's test) of the same molecule?
The value was “significant increase”.

With `CCCCCCCCCCCCCCC[C@@H](O)[C@H](CO)NC(=O)C(O)CCCCCCCCCCCCCC` (stereo partly shown) [N-2′-hydroxypalmitoyl-sphinganine] as the molecule, how does the “Differentiated cell ratio (%) of PC-12 cell 48 hours after addition” value ([3]; addition concentration 5 μg/ml) read?
The value was 19.49%.

And the “Differentiated cell ratio (%) of PC-12 cell 48 hours after addition” value ([3]; addition concentration 25 μg/ml)?
The value was 17.44%.
